# According to patent publication US9708334B2, “Substituted 2,4,5,6-tetrahydropyrrolo[3,4-c]pyrazole and 4,5,6,7-tetrahydro-2H-pyrazolo[4,3-c]pyridine compounds as GlyT1 inhibitors” (DART NEUROSCIENCE (CAYMAN) LTD., priority 2014, dated 2017):
# Biological target: T1, GlyT1 (Homo sapiens, UniProt P48067)
# T1 construct: expressed in transfected cells
# T1 sequence (P48067 1-706): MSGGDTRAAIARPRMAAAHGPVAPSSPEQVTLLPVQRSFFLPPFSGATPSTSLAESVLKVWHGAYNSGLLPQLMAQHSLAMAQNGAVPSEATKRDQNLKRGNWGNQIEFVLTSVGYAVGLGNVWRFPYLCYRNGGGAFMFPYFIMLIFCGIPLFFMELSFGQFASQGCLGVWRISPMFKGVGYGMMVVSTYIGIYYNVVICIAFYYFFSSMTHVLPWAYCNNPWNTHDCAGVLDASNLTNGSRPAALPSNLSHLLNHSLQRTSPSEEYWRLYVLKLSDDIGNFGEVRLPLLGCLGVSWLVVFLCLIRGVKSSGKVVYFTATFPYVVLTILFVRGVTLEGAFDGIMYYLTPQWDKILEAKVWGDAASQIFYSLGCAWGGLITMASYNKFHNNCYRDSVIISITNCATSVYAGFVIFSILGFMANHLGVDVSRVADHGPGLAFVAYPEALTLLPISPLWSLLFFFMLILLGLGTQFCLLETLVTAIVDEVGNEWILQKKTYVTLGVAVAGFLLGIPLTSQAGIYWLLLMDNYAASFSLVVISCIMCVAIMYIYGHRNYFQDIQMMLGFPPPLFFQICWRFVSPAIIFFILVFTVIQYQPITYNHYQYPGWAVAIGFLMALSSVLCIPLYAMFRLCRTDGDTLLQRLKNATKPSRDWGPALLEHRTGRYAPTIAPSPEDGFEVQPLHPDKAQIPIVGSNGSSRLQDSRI
# Assay: Glycine Transporter 1 (GlyT1) uptake assay, scintillation proximity assay of [14C]-glycine uptake
# Format: cell-based
# Conditions: SPA, four parameter logistic fit, read-out: GlyT1 (pIC50) (converted)
# Summary of the method: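 [14C]-glycine uptake read by scintillation proximity on a plate counter. IC50 from four-parameter logistic fit of dose-response data.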
row,IC50 [nM],SMILES
1,100 to 1000,"CC(C)(Oc1ccc(C#N)cc1C(=O)N1Cc2cn(-c3ccc(F)cc3)nc2C1)C(F)(F)F [Example 532, 3-[2-(4-Fluorophenyl)-2H 4H 5H 6H-pyrrolo[3,4-c]pyrazole-5-carbonyl]-4-[(1 1 1-trifluoro-2-methylpropan-2-yl)oxy]benzonitrile]"
2,< 100,"COc1c(C#N)ccc(OCC(F)(F)F)c1C(=O)N1Cc2cn(-c3ccc(F)c(C)n3)nc2C1 [Example 533, 3-[2-(5-Fluoro-6-methylpyridin-2-yl)-2H 4H 5H 6H-pyrrolo[3,4-c]pyrazole-5-carbonyl]-2-methoxy-4-(2 2 2-trifluoroethoxy)benzonitrile]"
3,100 to 1000,"COc1c(C#N)ccc(OCC(F)F)c1C(=O)N1Cc2cn(-c3ccc(F)c(C)n3)nc2C1 [Example 534, 4-(2 2-Difluoroethoxy)-3-[2-(5-fluoro-6-methylpyridin-2-yl)-2H 4H 5H 6H-pyrrolo[3,4-c]pyrazole-5-carbonyl]-2-methoxybenzonitrile]"
4,< 100,"COc1c(C#N)ccc(OC(C)C)c1C(=O)N1Cc2cn(-c3ccc(F)c(C)n3)nc2C1 [Example 535, 3-[2-(5-Fluoro-6-methylpyridin-2-yl)-2H 4H 5H 6H-pyrrolo[3,4-c]pyrazole-5-carbonyl]-2-methoxy-4-(propan-2-yloxy)benzonitrile]"
5,100 to 1000,"COc1c(C#N)ccc(OCC2(C)COC2)c1C(=O)N1Cc2cn(-c3ccc(F)c(C)n3)nc2C1 [Example 536, 3-[2-(5-Fluoro-6-methylpyridin-2-yl)-2H 4H 5H 6H-pyrrolo[3,4-c]pyrazole-5-carbonyl]-2-methoxy-4-[(3-methyloxetan-3-yl)methoxy]benzonitrile]"
6,100 to 1000,"COc1c(C#N)ccc(OC2COC2)c1C(=O)N1Cc2cn(-c3ccc(F)c(C)n3)nc2C1 [Example 537, 3-[2-(5-Fluoro-6-methylpyridin-2-yl)-2H 4H 5H 6H-pyrrolo[3,4-c]pyrazole-5-carbonyl]-2-methoxy-4-(oxetan-3-yloxy)benzonitrile]"
7,1000 to 10000,"Cc1cc(-n2cc3c(n2)CN(C(=O)c2cc(C#N)ccc2OCC2(C)COC2)C3)ccn1 [Example 538, 4-[(3-Methyloxetan-3-yl)methoxy]-3-[2-(2-methylpyridin-4-yl)-2H 4H 5H 6H-pyrrolo[3,4-c]pyrazole-5-carbonyl]benzonitrile]"
8,100 to 1000,"Cc1cc(-n2cc3c(n2)CN(C(=O)c2cc(C#N)ccc2OCC(F)(F)F)C3)ccn1 [Example 539, 3-[2-(2-Methylpyridin-4-yl)-2H 4H 5H 6H-pyrrolo[3,4-c]pyrazole-5-carbonyl]-4-(2 2 2-trifluoroethoxy)benzonitrile]"
9,< 100,"Cc1cc(-n2cc3c(n2)CN(C(=O)c2cc(C#N)ccc2OCC2CC2)C3)ccn1 [Example 540, 4-(Cyclopropylmethoxy)-3-[2-(2-methylpyridin-4-yl)-2H 4H 5H 6H-pyrrolo[3,4-c]pyrazole-5-carbonyl]benzonitrile]"
10,< 100,"Cc1cc(-n2cc3c(n2)CN(C(=O)c2cc(C#N)ccc2OC(C)(C)C(F)(F)F)C3)ccn1 [Example 542, 3-[2-(2-Methylpyridin-4-yl)-2H 4H 5H 6H-pyrrolo[3,4-c]pyrazole-5-carbonyl]-4-[(1 1 1-trifluoro-2-methylpropan-2-yl)oxy]benzonitrile]"
11,100 to 1000,"CCc1cc(-n2cc3c(n2)CN(C(=O)c2cc(C#N)ccc2OCC(F)(F)F)C3)ccn1 [Example 543, 3-[2-(2-Ethylpyridin-4-yl)-2H 4H 5H 6H-pyrrolo[3,4-c]pyrazole-5-carbonyl]-4-(2 2 2-trifluoroethoxy)benzonitrile]"
12,100 to 1000,"CCc1cc(-n2cc3c(n2)CN(C(=O)c2cc(C#N)ccc2OCC2CC2)C3)ccn1 [Example 544, 4-(Cyclopropylmethoxy)-3-[2-(2-ethylpyridin-4-yl)-2H 4H 5H 6H-pyrrolo[3,4-c]pyrazole-5-carbonyl]benzonitrile]"
13,100 to 1000,"CCc1cc(-n2cc3c(n2)CN(C(=O)c2cc(C#N)ccc2OCC(F)F)C3)ccn1 [Example 545, 4-(2 2-Difluoroethoxy)-3-[2-(2-ethylpyridin-4-yl)-2H 4H 5H 6H-pyrrolo[3,4-c]pyrazole-5-carbonyl]benzonitrile]"
14,< 100,"CCc1cc(-n2cc3c(n2)CN(C(=O)c2cc(C#N)ccc2N2CCC(F)(F)CC2)C3)ccn1 [Example 546, 4-(4 4-Difluoropiperidin-1-yl)-3-[2-(2-ethylpyridin-4-yl)-2H 4H 5H 6H-pyrrolo[3,4-c]pyrazole-5-carbonyl]benzonitrile]"
15,100 to 1000,"CS(=O)(=O)c1ccc(-c2ccc(C(F)(F)F)nc2)c(C(=O)N2Cc3cn(-c4ccccc4F)nc3C2)c1 [Example 547, 5-{2-[2-(2-Fluorophenyl)-2H 4H 5H 6H-pyrrolo[3,4-c]pyrazole-5-carbonyl]-4-methanesulfonylphenyl}-2-(trifluoromethyl)pyridine]"
16,1000 to 10000,"CS(=O)(=O)c1ccc(-c2cncc(F)c2)c(C(=O)N2Cc3cn(-c4ccc(F)cn4)nc3C2)c1 [Example 548, 5-Fluoro-2-{5-[2-(5-fluoropyridin-3-yl)-5-methanesulfonylbenzoyl]-2H 4H 5H 6H-pyrrolo[3,4-c]pyrazol-2-yl}pyridine]"
17,< 100,"Cc1cncc(-c2ccc(S(C)(=O)=O)cc2C(=O)N2Cc3cn(-c4ccc(F)cn4)nc3C2)c1 [Example 549, 5-Fluoro-2-{5-[5-methanesulfonyl-2-(5-methylpyridin-3-yl)benzoyl]-2H 4H 5H 6H-pyrrolo[3,4-c]pyrazol-2-yl}pyridine]"
18,1000 to 10000,"N#Cc1ccc(-c2ccccc2F)c(C(=O)N2Cc3cn(-c4cncc(F)c4)nc3C2)c1 [Example 550, 4-(2-Fluorophenyl)-3-[2-(5-fluoropyridin-3-yl)-2H 4H 5H 6H-pyrrolo[3,4-c]pyrazole-5-carbonyl]benzonitrile]"
19,100 to 1000,"N#Cc1ccc(-c2cncc(F)c2)c(C(=O)N2Cc3cn(-c4cncc(F)c4)nc3C2)c1 [Example 552, 4-(5-Fluoropyridin-3-yl)-3-[2-(5-fluoropyridin-3-yl)-2H 4H 5H 6H-pyrrolo[3,4-c]pyrazole-5-carbonyl]benzonitrile]"
20,100 to 1000,N#Cc1ccc(-c2cccnc2)c(C(=O)N2Cc3cn(-c4cncc(F)c4)nc3C2)c1 [Example 553]
21,1000 to 10000,"Cc1cc(-n2cc3c(n2)CN(C(=O)c2cc(C#N)ccc2-c2ccccc2F)C3)ccn1 [Example 554, 4-(2-Fluorophenyl)-3-[2-(2-methylpyridin-4-yl)-2H 4H 5H 6H-pyrrolo[3,4-c]pyrazole-5-carbonyl]benzonitrile]"
22,100 to 1000,"CS(=O)(=O)c1ccc(-c2cccnc2)c(C(=O)N2Cc3cn(-c4ccccc4F)nc3C2)c1 [Example 555, (2-(2-Fluorophenyl)pyrrolo[3,4-c]pyrazol-5(2H,4H,6H)-yl)(5-(methylsulfonyl)-2-(pyridin-3-yl)phenyl)methanone]"
23,< 100,"Cc1cc(-n2cc3c(n2)CN(C(=O)c2cc(C#N)ccc2-c2cncc(F)c2)C3)ccn1 [Example 556, 4-(5-Fluoropyridin-3-yl)-3-[2-(2-methylpyridin-4-yl)-2H 4H 5H 6H-pyrrolo[3,4-c]pyrazole-5-carbonyl]benzonitrile]"
24,100 to 1000,"N#Cc1ccc(-c2cccc(F)c2)c(C(=O)N2Cc3cn(C4CCOCC4)nc3C2)c1 [Example 557, 4-(3-Fluorophenyl)-3-[2-(oxan-4-yl)-2H 4H 5H 6H-pyrrolo[3,4-c]pyrazole-5-carbonyl]benzonitrile]"
25,> 10000,"Cc1cccc(-c2ccc(C#N)cc2C(=O)N2Cc3cn(C4CCOCC4)nc3C2)c1 [Example 558, 4-(3-Methylphenyl)-3-[2-(oxan-4-yl)-2H 4H 5H 6H-pyrrolo[3,4-c]pyrazole-5-carbonyl]benzonitrile]"
26,< 100,"CS(=O)(=O)c1ccc(-c2ccccc2F)c(C(=O)N2Cc3cn(-c4ccccc4F)nc3C2)c1 [Example 559, 2-(2-Fluorophenyl)-5-[2-(2-fluorophenyl)-5-methanesulfonylbenzoyl]-2H 4H 5H 6H-pyrrolo[3,4-c]pyrazole]"
27,< 100,"CS(=O)(=O)c1ccc(-c2cccc(F)c2)c(C(=O)N2Cc3cn(-c4ccccc4F)nc3C2)c1 [Example 560, 2-(2-Fluorophenyl)-5-[2-(3-fluorophenyl)-5-methanesulfonylbenzoyl]-2H 4H 5H 6H-pyrrolo[3,4-c]pyrazole]"
28,< 100,"CS(=O)(=O)c1ccc(-c2cncc(F)c2)c(C(=O)N2Cc3cn(-c4ccccc4F)nc3C2)c1 [Example 561, 3-Fluoro-5-{2-[2-(2-fluorophenyl)-2H 4H 5H 6H-pyrrolo[3,4-c]pyrazole-5-carbonyl]-4-methanesulfonylphenyl}pyridine]"
29,100 to 1000,"Cc1cc(-n2cc3c(n2)CN(C(=O)c2cc(C#N)ccc2-c2cc(F)cc(F)c2)C3)ccn1 [Example 562, 4-(3 5-Difluorophenyl)-3-[2-(2-methylpyridin-4-yl)-2H 4H 5H 6H-pyrrolo[3,4-c]pyrazole-5-carbonyl]benzonitrile]"
30,< 100,"CS(=O)(=O)c1ccc(-c2cc(F)cc(F)c2)c(C(=O)N2Cc3cn(-c4cncc(F)c4)nc3C2)c1 [Example 563, 3-{5-[2-(3 5-Difluorophenyl)-5-methanesulfonylbenzoyl]-2H 4H 5H 6H-pyrrolo[3,4-c]pyrazol-2-yl}-5-fluoropyridine]"
